Results taken from US20130203715A1, “USE OF TRP CHANNEL AGONISTS TO TREAT INFECTIONS” (Pulmatrix, Inc., priority 2010, published 2013).
Read-outs that look alike come from different tables or passages of the source.

Assays:
[1] = tested on: Influenza A/Panama/2007/99; format: cell-based; conditions: for Effect of TRP channel antagonist on 8×Ca:Na formulation-mediated reduction of influenza infection: Calu-3 cells pretreated with antagonist (RR 1 μM, SKF96365 10 μM, RN1734 1-100 μM), then 8×Ca:Na formulation
[2] = tested on: Influenza A/Panama/2007/99; assay: Influenza infection of normal human bronchial epithelial (NHBE) cells, viral titer by TCID50; format: cell-based, Influenza A (H3N2); conditions: for Effect of TRPV4 agonist on influenza replication in NHBE cells: agonist 1 μM one hour prior to infection and reapplied 3 h after, compared to PBS control
[3] = tested on: parainfluenza (hPIV3); format: cell-based, human parainfluenza virus
[4] = tested on: rhinovirus (RV16); format: cell-based, human rhinovirus
[5] = Calu-3 cells, treatment alone, compared to untreated control
[6] = reduction of influenza infection, TCID50 24 h after infection
[7] = reduction of influenza infection, agonist applied apically 1 h before and again 3 h after infection, titer 24 h after infection
[8] = Calu-3 cells pretreated with ruthenium red 1 μM, then 8×Ca:Na formulation

O=[N+]([O-])c1cc(Cl)ccc1S(=O)(=O)N1CCN(Cc2ccccc2)CC1 [RN1747]
Active concentrations [1]: -8 to -4 M
Max reduction in titer (Log10) [1]: 2.3 Log10
Effect on influenza infection (viral titer) of Calu-3 cells [1, 5]: reduces influenza infection in a dose-dependent manner

COc1cc(CNC(=O)CCCC/C=C/C(C)C)ccc1O [Capsacin]
Active concentrations [1]: -8 to -4 M
Max reduction in titer (Log10) [1]: 2.2 Log10

O=C1NC(c2cccc([N+](=O)[O-])c2)=CCN1c1ccccc1O [Icilin]
Effect on influenza infection (viral titer) of Calu-3 cells [1, 5]: small, but measurable reduction of influenza titer
Max reduction in titer (Log10) [1, 6]: 1 Log10
Active concentrations [1, 7]: -6 to -4 M

COc1ccc(CCCOC(Cn2ccnc2)c2ccc(OC)cc2)cc1 (centres unmarked) [SKF96365]
Effect of TRP channel antagonist on 8×Ca:Na formulation-mediated reduction of influenza infection [1]: the effect on viral infection was reduced to levels comparable to the untreated control cells

Cc1ccc(C(C)C)cc1O [Carvacrol]
Active concentrations [1]: −6.5 to −4M^
Max reduction in titer (Log10) [1]: 3 Log10
Effect on influenza infection (viral titer) of Calu-3 cells [1, 5]: reduced influenza titer in a dose responsive manner

CC1CCC(C(C)C)C(O)C1 (centres unmarked) [Menthol]
Effect on influenza infection (viral titer) of Calu-3 cells [1, 5]: reduced influenza titer in a dose responsive manner
Max reduction in titer (Log10) [1, 6]: 2.5 Log10
Active concentrations [1, 7]: -7 to -4 M

CC(C)NCCN(C(C)C)S(=O)(=O)c1ccc(Cl)cc1Cl [RN1734]
Effect of TRP channel antagonist on 8×Ca:Na formulation-mediated reduction of influenza infection [1]: inhibited the 8×Ca:Na formulation-mediated reduction of influenza infection in a dose dependent manner

CC(C)C[C@H](NC(=O)c1cc2ccccc2s1)C(=O)N1CCN(C(=O)[C@H](CO)NS(=O)(=O)c2ccc(Cl)cc2Cl)CC1 [GSK1016790A]
Active concentrations [1]: -11 to -6 M
Max reduction in titer (Log10) [1]: 5.0 Log10
Effect on influenza infection (viral titer) of Calu-3 cells [1, 5]: reduces influenza infection in a dose-dependent manner
Effect on influenza infection (viral titer) of Calu-3 cells ([1]; Calu-3 cells, treatment alone, compared to untreated control, listed as GSK10168790): the highest level of anti-viral efficacy in a dose-dependent manner
Effect of TRPV4 agonist on influenza replication in NHBE cells [2]: reduced influenza replication

O=C(O)c1ccccc1Nc1cccc(C(F)(F)F)c1 [Flufenamic acid]
Effect on influenza infection (viral titer) of Calu-3 cells [1, 5]: reduced influenza titer in a dose responsive manner
Max reduction in titer (Log10) [1, 6]: 2.5 Log10
Active concentrations [1, 7]: -6 to -4 M

CCCCCCCCCC(=O)O[C@@H]1[C@@H](C)[C@@]2(O)[C@@H](C=C(CO)C[C@@]3(O)C(=O)C(C)=C[C@@H]23)[C@@H]2C(C)(C)[C@]12OC(=O)CCCCCCCCC [4αPDD, 4α-Phorbol 12,13-didecanoate]
Active concentrations [1]: -9 to -5 M
Effect on influenza infection (viral titer) of Calu-3 cells [1]: reduces influenza infection
Max reduction in titer (Log10) [1]: 2.9 Log10
Effect on parainfluenza infection of Calu-3 cells ([3]; Calu-3 cells, hPIV3, compared to untreated control): able to reduce
Effect on rhinovirus infection of Calu-3 cells ([4]; Calu-3 cells, RV16, compared to untreated control): able to reduce
Effect of TRPV4 agonist on influenza replication in NHBE cells [2]: reduced influenza replication

C=C(C)[C@]12C[C@@H](C)[C@@]34O[C@](Cc5ccccc5)(O[C@@H]1[C@@H]3C=C(COC(=O)Cc1ccc(O)c(OC)c1)C[C@]1(O)C(=O)C(C)=C[C@@H]41)O2 [Resiniferatoxin]
Active concentrations [1]: -6 to -4 M
Max reduction in titer (Log10) [1]: 3.3 Log10

N.N.N.N.N.N.N.N.N.N.N.N.N.N.[Cl-].[Cl-].[Cl-].[Cl-].[Cl-].[Cl-].[O-2].[O-2].[Ru+3].[Ru+3].[Ru+4] [Ruthenium Red]
Effect of antagonist on Formulation I reduction of influenza viral titer ([1]; Calu-3 cells pre-treated with ruthenium red 1 μM, then dry powder Formulation I): attenuated
Effect of antagonist on Formulation II reduction of influenza infection ([1]; Calu-3 cells pre-treated with ruthenium red 1 μM, then dry powder Formulation II): attenuated
Effect of TRP channel antagonist on 8×Ca:Na formulation-mediated reduction of influenza infection [1]: the effect on viral infection was reduced to levels comparable to the untreated control cells
Effect of antagonist on 8×Ca:Na formulation efficacy against parainfluenza [3, 8]: the efficacy of the 8× treatment was reduced
Effect of antagonist on 8×Ca:Na formulation efficacy against rhinovirus [4, 8]: the efficacy of the 8× treatment was reduced
Effect of antagonist on 8×Ca:Na formulation anti-viral action in NHBE cells ([2]; ruthenium red 1 μM before 8×Ca:Na formulation): blocked the anti-viral action of the Ca:Na formulation
